Experimental data: patent US20170184604A1, “DD1ALPHA RECEPTOR AND USES THEREOF IN IMMUNE DISORDERS” (THE GENERAL HOSPITAL CORPORATION, priority 2014, published 2017)

Key:
[1] = tested on: naïve CD4+CD62L+ T cells; assay: iTreg cell development assay; format: cell-based, mouse; conditions: for frequency of Foxp3+CD4+ T cells (iTreg): anti-CD3 and anti-CD28
Description: (§1) Enriched human CD4+ T cells and CD8+ T cells were stained with CFSE (1 μM) and stimulated with plate-bound anti-CD3 antibody (3 μg/ml) together with 2, 5, or 10 μg/ml of DD1α-Ig proteins or control Ig proteins. The proliferations of CD4+ T or CD8+ T cells were determined by the percentages of CFSE-labeled CD4+ T or CD8+ T cells at the 72-hour culture. The levels of cytokines IFN-γ and TNF-α in culture supernatant were analyzed by ELISA at the 48-hour culture. […] The proliferation and cytokine production of CD4+ T cells were determined as FIG. 5A. […] The proliferations of CD4+ T cells were determined by percentage of CFSE-diluted CD4+ cells on day 3. The levels of cytokines IFN-γ and IL-2 in culture supernatant were analyzed by ELISA on day 2. […] Data are shown as mean±SD and representative of three experiments.
The cell culture plates were coated with anti-CD3 (145-2C11, eBioscience) together with mDD1α-Ig, mPD-L1-Ig or control Ig proteins. CD4+CD62L+naïve T cells were purified from splenocytes freshly isolated from Wt mice using CD4+CD62L+ T Cell Isolation Kit II (Miltenyi Biotec) and cultured in complete RPMI-1640 media added by anti-CD28 (37.51, eBioscience) and TGF-β (BioLegend) on the anti-CD3 & Ig proteins-coated plates. On day 3, cells were stained with anti-CD4-APC (RM4-5, eBioscience) and anti-mouse Foxp3-PE (FJK-16s, eBioscience) and analyzed for Foxp3 expression on CD4+ T cells by flow cytometry.

[2] = tested on: human CD4+ T cells; assay: Human T cell activation assay (CFSE proliferation, cytokine ELISA); format: cell-based
Description: as §1
The proliferations of CD4^+ T cells were determined by percentage of CFSE-diluted CD4^+ cells on day 3.
The cytokine production of CD4^+ T cells were then determined IFN-γ and TNF-alpha levels in culture supernatants on day 2 were analyzed by ELISA.
The amount of Ig protein was kept constant at 10 μg/ml by the addition of control Ig protein. Human CD4+ or CD8+ T cells were purified from freshly isolated PBMCs using CD4+ T Cell Isolation Kit II, human or CD8+ T Cell Isolation Kit, human (Miltenyi Biotec). Mouse CD4+ and CD8+ T cells were purified from splenocytes freshly isolated from mice using CD4+ T Cell Isolation Kit II, mouse or CD8a+ T Cell Isolation Kit II, mouse (Miltenyi Biotec). […] The T cells were labeled with 1 μM CFSE, quenched by cold FBS and incubated in the anti-CD3 & Ig proteins-coated plates. On day 2 after stimulation, supernatant was collected and cytokines were assayed by ELISA. On day 3, cells were stained with anti-CD4-APC (OKT4, eBioscience for human CD4+ T cells; RM4-5, eBioscience for mouse CD4+ T cells) or anti-CD8-APC (SK1, eBioscience for human CD8+ T cells; 53-6.7, eBioscience for mouse CD8+ T cells) and then analyzed for CFSE dilution by flow cytometry.

[3] = tested on: CD4+ or CD8+ T cells from wt- or DD1α−/− mice; assay: Mouse T cell activation assay (CFSE proliferation); format: cell-based
Description: Enriched CD4+ and CD8+ T cells from Wt and DD1α−/− mice were stimulated, with 2.5 μg/ml anti-CD3 alone or together with DD1α-Ig or control Ig. The proliferations of CD4+ T cells (top graphs) or CD8+ T cells (bottom graphs) were determined by the percentage of CFSE-diluted CD8+ cells on day 3. The levels of cytokines (IFN-γ and TNF-α) in culture supernatant on day 2 were analyzed by ELISA. The results represent mean±SD from three experiments.
The inventors have discovered that DD1αregulates T cell activation through DD1α on T cells. […] The proliferations of CD4+ T cells were determined by percentage of CFSE-diluted CD4+ cells on day 3 and IFN-γ and levels in culture supernatants on day 2 were analyzed by ELISA. […] The proliferations of CD8+ T cells were determined by percentage of CD8+ T cells containing diluted CFSE signal on day 3. The cytokine levels in culture supernatant were analyzed by ELISA on day 2.
The amount of Ig protein was kept constant at 10 μg/ml by the addition of control Ig protein. Human CD4+ or CD8+ T cells were purified from freshly isolated PBMCs using CD4+ T Cell Isolation Kit II, human or CD8+ T Cell Isolation Kit, human (Miltenyi Biotec). Mouse CD4+ and CD8+ T cells were purified from splenocytes freshly isolated from mice using CD4+ T Cell Isolation Kit II, mouse or CD8a+ T Cell Isolation Kit II, mouse (Miltenyi Biotec). Purity was confirmed to be over 90% by flow cytometry. The T cells were labeled with 1 μM CFSE, quenched by cold FBS and incubated in the anti-CD3 & Ig proteins-coated plates. On day 2 after stimulation, supernatant was collected and cytokines were assayed by ELISA. On day 3, cells were stained with anti-CD4-APC (OKT4, eBioscience for human CD4+ T cells; RM4-5, eBioscience for mouse CD4+ T cells) or anti-CD8-APC (SK1, eBioscience for human CD8+ T cells; 53-6.7, eBioscience for mouse CD8+ T cells) and then analyzed for CFSE dilution by flow cytometry.

**Q.** Which iTreg cell generation ([1]; alone without TGF-β) does the source give for “DD1α-Ig: the extracellular region of DD1α fused with the immunoglobulin G Fc segment” here?
**A.** did not affect

**Q.** And the “frequency of Foxp3+CD4+ T cells (iTreg)” value ([1]; 1 ng/ml TGF-β, control Ig 14.2%)?
**A.** 31.4%

**Q.** And the “frequency of Foxp3+CD4+ T cells (iTreg)” value ([1]; 2 ng/ml TGF, control Ig 32.6%)?
**A.** 51.7%

**Q.** And the iTreg cell development ([1]; in the presence of TGF-β)?
**A.** significantly enhanced

**Q.** What about the “T cell activation-induced production of IFN-γ and TNF-α” value ([2]; human CD4+ and CD8+ T cells, ELISA of culture supernatant) of the same substance?
**A.** clearly blocked

**Q.** What about the “proliferation of human CD4+ T cells” value ([2]; plate-bound anti-CD3 3 μg/ml, CFSE, Ig control 92.2%) of the same substance?
**A.** 47.1%

**Q.** And the “inhibition of anti-CD3-stimulated human CD4+ T cell proliferation” value ([2]; plate-bound anti-CD3 3 μg/ml, CFSE, relative to Ig control (92.2% proliferation))?
**A.** ~45%

**Q.** What about the “CD4+ T cell proliferation stimulated by anti-CD3” value ([2]; various concentrations with 3 μg/ml anti-CD3) of the same substance?
**A.** strongly inhibited

**Q.** What about the “inhibition of anti-CD3-induced CD4+ or CD8+ T cell proliferation” value ([3]; DD1α−/− CD4+ or CD8+ T cells) of the same substance?
**A.** ~30%

**Q.** What about the “inhibition of anti-CD3-induced CD4+ or CD8+ T cell proliferation” value ([3]; T cells from wt mice) of the same substance?
**A.** ~50%

**Q.** And the “mouse CD4+ and CD8+ T cell activation” value ([3]; dose-dependent)?
**A.** inhibitory effect
